This is an account of results in ChEMBL document CHEMBL1155919, “Inhibition of human mitochondrial carbonic anhydrases VA and VB with para-(4-phenyltriazole-1-yl)-benzenesulfonamide derivatives” (Bioorg Med Chem Lett, 2008).

One test deals with Carbonic anhydrase 1 (Homo sapiens, UniProt P00915).
For test [1], the target named is Carbonic anhydrase 5A, mitochondrial (Homo sapiens, UniProt P35218).
For test [2], the target named is Carbonic anhydrase 5B, mitochondrial (Homo sapiens, UniProt Q9Y2D0).
In another test the target is Carbonic anhydrase 2 (Homo sapiens, UniProt P00918).

Chain of Carbonic anhydrase 5B, mitochondrial (Q9Y2D0 whole entry): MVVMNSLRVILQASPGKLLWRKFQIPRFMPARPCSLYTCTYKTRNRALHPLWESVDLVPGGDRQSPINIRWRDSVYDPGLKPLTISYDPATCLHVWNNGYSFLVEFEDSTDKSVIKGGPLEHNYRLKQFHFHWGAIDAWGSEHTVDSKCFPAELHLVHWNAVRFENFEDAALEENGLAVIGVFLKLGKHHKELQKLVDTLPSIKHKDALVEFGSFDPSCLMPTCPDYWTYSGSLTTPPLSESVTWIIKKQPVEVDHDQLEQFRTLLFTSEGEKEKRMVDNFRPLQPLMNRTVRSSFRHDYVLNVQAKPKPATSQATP
Chain of Carbonic anhydrase 5A, mitochondrial (P35218 whole entry): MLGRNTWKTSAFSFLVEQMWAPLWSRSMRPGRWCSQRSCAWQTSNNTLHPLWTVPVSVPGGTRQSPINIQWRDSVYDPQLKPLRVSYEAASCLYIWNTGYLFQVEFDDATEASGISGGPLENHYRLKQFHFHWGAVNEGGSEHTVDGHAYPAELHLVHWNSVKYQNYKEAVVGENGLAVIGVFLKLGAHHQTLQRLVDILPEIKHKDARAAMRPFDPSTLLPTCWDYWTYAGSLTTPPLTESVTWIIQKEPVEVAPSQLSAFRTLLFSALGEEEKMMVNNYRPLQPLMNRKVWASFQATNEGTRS
Chain of Carbonic anhydrase 1 (P00915 whole entry): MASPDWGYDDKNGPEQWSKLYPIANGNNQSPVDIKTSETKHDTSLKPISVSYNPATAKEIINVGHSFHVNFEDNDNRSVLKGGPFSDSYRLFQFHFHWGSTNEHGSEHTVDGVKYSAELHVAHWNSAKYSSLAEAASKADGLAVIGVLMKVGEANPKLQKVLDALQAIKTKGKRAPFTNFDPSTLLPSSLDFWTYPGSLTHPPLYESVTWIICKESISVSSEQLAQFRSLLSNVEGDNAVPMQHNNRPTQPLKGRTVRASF

As to `Cc1ccc(-c2cn(-c3ccc(S(N)(=O)=O)cc3)nn2)cc1`, the Ki amounted to 2100 nM at Carbonic anhydrase 1, 12.8 nM in test [1] and 10.6 nM in test [2].
Take `NS(=O)(=O)c1ccc(-n2cc(-c3ccc(F)cc3)nn2)cc1`: the Ki at Carbonic anhydrase 1 amounted to 4600 nM; at Carbonic anhydrase 2, 40.3 nM; in test [1], 14.2 nM; in test [2], 11.2 nM.
For `COc1ccc(-c2cn(-c3ccc(S(N)(=O)=O)cc3)nn2)cc1` the same measures were 2200 nM, 8.4 nM, 10.6 nM and 51.8 nM.
In the case of `NS(=O)(=O)c1ccc(-n2cc(-c3ccccc3)nn2)cc1`, the Ki is 5100 nM at Carbonic anhydrase 1, 17.8 nM in test [1] and 10.6 nM in test [2].

Broadly, the Ki is the dissociation constant of the complex between target and ligand, obtained from inhibition or displacement. Higher therefore signals weaker binding.
